Source: PubChem BioAssay AID248 (DTP/NCI, 2004)
“And” between values parts separate entries of the source, which are not always exact repeats. Identical values can stand only once. Toxic doses and inconclusive results are not listed. No stated cut-off is given here; in the data, active means T/C of 150% or more; inactive means T/C below 125%.

System: L1210 leukemia ip in BDF1 mice, survival T/C
Experiment: NCI In Vivo Anticancer Drug Screen. Data for tumor model L1210 Leukemia (intraperitoneal) in B6D2F1 (BDF1) mice
Conditions: endpoint: mean survival time, higher = longer survival
Method in brief: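 Survival endpoint. Drug-treated group vs vehicle group, expressed as T divided by C. Tumor passaged by transplantation.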

[1] = dose: 100.0 mg/kg/injection, schedule: Q04DX003 (ip), vehicle: saline with Tween-80
[2] = dose: 200.0 mg/kg/injection, schedule: Q04DX003 (ip), vehicle: saline with Tween-80
[3] = dose: 400.0 mg/kg/injection, schedule: Q04DX002 (ip), vehicle: saline with Tween-80
[4] = dose: 400.0 mg/kg/injection, schedule: Q04DX003 (ip), vehicle: saline with Tween-80
[5] = dose: 100.0 mg/kg/injection, schedule: Q04DX002 (ip), vehicle: Klucel (hydroxypropylcellulose) (HPC)
[6] = dose: 200.0 mg/kg/injection, schedule: Q04DX002 (ip), vehicle: Klucel (hydroxypropylcellulose) (HPC)
[7] = dose: 400.0 mg/kg/injection, schedule: Q04DX002 (ip), vehicle: Klucel (hydroxypropylcellulose) (HPC)
[8] = dose: 100.0 mg/kg/injection, schedule: Q01DX009 (ip), vehicle: Klucel (hydroxypropylcellulose) (HPC)
[9] = dose: 200.0 mg/kg/injection, schedule: Q01DX009 (ip), vehicle: Klucel (hydroxypropylcellulose) (HPC)
[10] = dose: 400.0 mg/kg/injection, schedule: Q01DX009 (ip), vehicle: Klucel (hydroxypropylcellulose) (HPC)
[11] = dose: 100.0 mg/kg/injection, schedule: Q01DX001 (ip), vehicle: saline
[12] = dose: 200.0 mg/kg/injection, schedule: Q01DX001 (ip), vehicle: saline
[13] = dose: 400.0 mg/kg/injection, schedule: Q01DX001 (ip), vehicle: saline
[14] = dose: 100.0 mg/kg/injection, schedule: Q04DX003 (ip), vehicle: Klucel (hydroxypropylcellulose) (HPC)
[15] = dose: 200.0 mg/kg/injection, schedule: Q04DX003 (ip), vehicle: Klucel (hydroxypropylcellulose) (HPC)
[16] = dose: 400.0 mg/kg/injection, schedule: Q04DX003 (ip), vehicle: Klucel (hydroxypropylcellulose) (HPC)
[17] = dose: 6.25 mg/kg/injection, schedule: Q01DX009 (ip), vehicle: saline
[18] = dose: 25.0 mg/kg/injection, schedule: Q01DX009 (ip), vehicle: Klucel (hydroxypropylcellulose) (HPC)
[19] = dose: 50.0 mg/kg/injection, schedule: Q01DX009 (ip), vehicle: Klucel (hydroxypropylcellulose) (HPC)
[20] = dose: 100.0 mg/kg/injection, schedule: Q04DX003 (ip), vehicle: saline

Measured: T/C

CCOC(=O)N/N=C/c1ccc(N(C)CCC#N)cc1
inactive: dose: 100.0 mg/kg/injection, schedule: Q01DX001 (ip), vehicle: saline with Tween-80 100 % of control | dose: 100.0 mg/kg/injection, schedule: Q04DX002 (ip), vehicle: saline with Tween-80 95 % of control and 107 % of control | [1] 102 % of control | dose: 200.0 mg/kg/injection, schedule: Q01DX001 (ip), vehicle: saline with Tween-80 103 % of control | dose: 200.0 mg/kg/injection, schedule: Q04DX002 (ip), vehicle: saline with Tween-80 96 % of control and 104 % of control | [2] 93 % of control and 98 % of control | [3] 98 % of control and 107 % of control | [4] 94 % of control and 96 % of control

C/C=C\c1ccc(OC(=O)Nc2cccc(Cl)c2)c(OC)c1
inactive: [5] 101 % of control | [6] 95 % of control | [7] 92 % of control

Clc1ccc(N=Cc2ccc3c(c2)OCO3)cc1
inactive: dose: 100.0 mg/kg/injection, schedule: Q01DX009 (ip), vehicle: other 93 % of control | dose: 200.0 mg/kg/injection, schedule: Q01DX009 (ip), vehicle: other 98 % of control | dose: 400.0 mg/kg/injection, schedule: Q01DX009 (ip), vehicle: other 90 % of control

CCOc1ccc(NC(=O)N/N=C(\C)CC(C)C)cc1
inactive: dose: 100.0 mg/kg/injection, schedule: Q01DX001 (ip), vehicle: Klucel (hydroxypropylcellulose) (HPC) 93 % of control | [8] 99 % of control and 102 % of control | [5] 95 % of control and 89 % of control | dose: 200.0 mg/kg/injection, schedule: Q01DX001 (ip), vehicle: Klucel (hydroxypropylcellulose) (HPC) 89 % of control | [9] 96 % of control and 101 % of control | [6] 103 % of control and 110 % of control | dose: 400.0 mg/kg/injection, schedule: Q01DX001 (ip), vehicle: Klucel (hydroxypropylcellulose) (HPC) 91 % of control | [10] 95 % of control and 102 % of control | [7] 104 % of control and 92 % of control

C=CC(C)(C)c1c2c(c(O)c3c(=O)c4ccc(O)c(O)c4oc13)C=CC(C)(C)O2
inactive: dose: 100.0 mg/kg/injection, schedule: Q01DX001 (ip), vehicle: carboxymethylcellulose (CMC) 95 % of control | dose: 200.0 mg/kg/injection, schedule: Q01DX001 (ip), vehicle: carboxymethylcellulose (CMC) 92 % of control | dose: 400.0 mg/kg/injection, schedule: Q01DX001 (ip), vehicle: carboxymethylcellulose (CMC) 95 % of control

CCCCCC(NC(=O)CCl)C(=O)O (stereo not given)
inactive: [8] 91 % of control | [9] 96 % of control | [10] 92 % of control

O=C(Oc1cccc([N+](=O)[O-])c1)c1ccc([N+](=O)[O-])cc1O
inactive: [11] 95 % of control | [12] 95 % of control | [13] 97 % of control

CCCCCCCCCCCCSCCSCCSCCCCCCCCCCCC
inactive: [14] 93 % of control | [15] 92 % of control | [16] 98 % of control

CC(/C=N/NC(N)=S)Cc1ccc(C(C)C)cc1 (stereo not given)
inactive: dose: 12.5 mg/kg/injection, schedule: Q04DX003 (ip), vehicle: saline with Tween-80 98 % of control | dose: 18.0 mg/kg/injection, schedule: Q01DX009 (ip), vehicle: alcohol 95 % of control | dose: 28.0 mg/kg/injection, schedule: Q01DX009 (ip), vehicle: alcohol 95 % of control

CCCCn1cncc1C
inactive: dose: 1.56 mg/kg/injection, schedule: Q01DX009 (ip), vehicle: saline 88 % of control | dose: 3.13 mg/kg/injection, schedule: Q01DX009 (ip), vehicle: saline 98 % of control | [17] 98 % of control and 104 % of control

c1ccc([Si]([O][Sn]([c]2ccccc2)([c]2ccccc2)[c]2ccccc2)(c2ccccc2)c2ccccc2)cc1
inactive: dose: 25.6 mg/kg/injection, schedule: Q04DX002 (ip), vehicle: saline with Tween-80 89 % of control | dose: 64.0 mg/kg/injection, schedule: Q04DX002 (ip), vehicle: saline with Tween-80 93 % of control | dose: 160.0 mg/kg/injection, schedule: Q04DX002 (ip), vehicle: saline with Tween-80 93 % of control | [3] 89 % of control

CCCCCCCCNC1=C(OC)C(=O)C(NCCCCCCCC)=C(OC)C1=O
inactive: [8] 98 % of control | [14] 96 % of control | [9] 104 % of control | [15] 91 % of control | [10] 98 % of control | [16] 88 % of control

NC(=O)C=C1c2ccccc2-c2ccccc21
inactive: [18] 97 % of control | [19] 94 % of control | [8] 96 % of control | [9] 91 % of control | [10] 89 % of control

O=[N+]([O-])c1cc(Cl)cc2c1-c1c(Cl)cc(Cl)cc1/C2=N/O
inactive: [18] 106 % of control | [19] 94 % of control | [14] 101 % of control

N#Cc1nc2ccc(Cl)cc2nc1C#N
inactive: [18] 104 % of control | [19] 105 % of control | [8] 95 % of control and 102 % of control

Cc1sc2ccccc2[n+]1CCC(=O)O
inactive: dose: 100.0 mg/kg/injection, schedule: Q01DX009 (ip), vehicle: gum acacia 94 % of control | dose: 100.0 mg/kg/injection, schedule: Q04DX003 (ip), vehicle: gum acacia 95 % of control | dose: 200.0 mg/kg/injection, schedule: Q01DX009 (ip), vehicle: gum acacia 101 % of control | dose: 200.0 mg/kg/injection, schedule: Q04DX003 (ip), vehicle: gum acacia 96 % of control | dose: 400.0 mg/kg/injection, schedule: Q01DX009 (ip), vehicle: gum acacia 100 % of control | dose: 400.0 mg/kg/injection, schedule: Q04DX003 (ip), vehicle: gum acacia 95 % of control

O=C1CC(c2cccc(S(=O)(=O)F)c2)=NN1c1ccc([N+](=O)[O-])cn1
inactive: [14] 102 % of control | [15] 105 % of control | [16] 91 % of control

CC(=O)OCc1ccc2ccccc2c1
inactive: [1] 101 % of control | [2] 106 % of control | [4] 101 % of control

O=C(c1ccccc1)C1(c2ccccc2)SSC1(C(=O)c1ccccc1)c1ccccc1 (stereo not given)
inactive: [20] 95 % of control | dose: 200.0 mg/kg/injection, schedule: Q04DX003 (ip), vehicle: saline 92 % of control | dose: 400.0 mg/kg/injection, schedule: Q04DX003 (ip), vehicle: saline 97 % of control

CC(=O)CC(C)=Nc1ccc(Cl)cc1
inactive: [8] 97 % of control | [14] 96 % of control | [9] 105 % of control | [15] 110 % of control | [10] 108 % of control | [16] 104 % of control

CC(C)(C)c1nc2ccc([N+](=O)[O-])cc2[nH]1
inactive: dose: 38.0 mg/kg/injection, schedule: Q01DX009 (ip), vehicle: other 104 % of control | dose: 75.0 mg/kg/injection, schedule: Q01DX001 (ip), vehicle: other 92 % of control | dose: 75.0 mg/kg/injection, schedule: Q04DX003 (ip), vehicle: other 92 % of control | dose: 150.0 mg/kg/injection, schedule: Q01DX001 (ip), vehicle: other 91 % of control | dose: 150.0 mg/kg/injection, schedule: Q04DX003 (ip), vehicle: other 92 % of control | dose: 300.0 mg/kg/injection, schedule: Q01DX001 (ip), vehicle: other 97 % of control

CC(N)Cc1ccc2c(c1)OCO2 (stereo not given)
inactive: dose: 6.0 mg/kg/injection, schedule: Q01DX009 (ip), vehicle: saline 104 % of control | [17] 103 % of control | dose: 12.0 mg/kg/injection, schedule: Q01DX009 (ip), vehicle: saline 98 % of control | dose: 12.5 mg/kg/injection, schedule: Q01DX009 (ip), vehicle: saline 93 % of control | dose: 25.0 mg/kg/injection, schedule: Q01DX009 (ip), vehicle: saline 106 % of control and 98 % of control and 102 % of control | dose: 25.0 mg/kg/injection, schedule: Q04DX003 (ip), vehicle: saline 103 % of control and 96 % of control | dose: 50.0 mg/kg/injection, schedule: Q01DX009 (ip), vehicle: saline 108 % of control | dose: 50.0 mg/kg/injection, schedule: Q04DX003 (ip), vehicle: saline 103 % of control and 97 % of control | [14] 93 % of control | [20] 110 % of control

NC(Cc1ccc(O)c(O)c1)C(=O)O (stereo not given)
inactive: [11] 93 % of control | [12] 95 % of control | [13] 97 % of control

CC(C)CCCC(C)C1CCC2C3CCC4=C/C(=N/NC(N)=O)CCC4(C)C3CCC12C (stereo not given)
inactive: [19] 97 % of control | [8] 90 % of control | [9] 88 % of control
